Laboratory results reported in PubChem BioAssay (NCI).
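Growth conditions: 96-well plates. Treatment: test compound, 48 hours, 5 concentrations. Analysis: linear interpolation between bracketing concentrations; unreached endpoints set to highest concentration. GI50 is the concentration that inhibits growth by half. Definition used: TGI = concentration required for complete inhibition of growth.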

Columns and labels:
Assay in all cases: NCI tumour cell line growth inhibition, 48 h
U251 CNS = tested on: U251 CNS
HL-60(TB) leukemia = tested on: HL-60(TB) leukemia
CCRF-CEM leukemia = tested on: CCRF-CEM leukemia
NCI-H23 lung = tested on: NCI-H23 lung
MOLT-4 leukemia = tested on: MOLT-4 leukemia
SF-268 CNS = tested on: SF-268 CNS
TK-10 renal = tested on: TK-10 renal
LOX IMVI melanoma = tested on: LOX IMVI melanoma
MALME-3M melanoma = tested on: MALME-3M melanoma
SF-295 CNS = tested on: SF-295 CNS

Row | SMILES | TGI (U251 CNS) [µM] | TGI (HL-60(TB) leukemia) [µM] | TGI (CCRF-CEM leukemia) [µM] | TGI (NCI-H23 lung) [µM] | TGI (MOLT-4 leukemia) [µM] | TGI (SF-268 CNS) [µM] | TGI (TK-10 renal) [µM] | TGI (LOX IMVI melanoma) [µM] | TGI (MALME-3M melanoma) [µM] | TGI (SF-295 CNS) [µM] | GI50 (U251 CNS) [µM] | GI50 (MALME-3M melanoma) [µM] | GI50 (HL-60(TB) leukemia) [µM] | GI50 (CCRF-CEM leukemia) [µM] | GI50 (NCI-H23 lung) [µM] | GI50 (MOLT-4 leukemia) [µM] | GI50 (SF-268 CNS) [µM] | GI50 (TK-10 renal) [µM] | GI50 (LOX IMVI melanoma) [µM] | GI50 (SF-295 CNS) [µM]
1 | COc1ccc(-c2nnc3c4ccccc4sn23)cc1 | > 100 | 45.4 | 33.7 | > 100 | > 100 | > 100 | > 100 | > 100 |  |  |  |  |  |  |  |  |  |  |  | 
2 | O=C1CNC(=O)N1 | > 1120 | > 1120 | > 954 | > 1120 | > 1120 | > 1120 |  | > 1120 | > 1120 | > 1120 |  |  |  |  |  |  |  |  |  | 
3 | COc1ccc2c(c1)C(=O)/C(=C/c1ccccc1)C2 | > 100 |  | > 100 | > 100 | > 100 |  |  |  | > 100 | > 100 |  |  |  |  |  |  |  |  |  | 
4 | Cc1cc(C)c(S(=O)(=O)N(CCCCCCN)OCCCON(CCCCCCN)S(=O)(=O)c2c(C)cc(C)cc2C)c(C)c1 | 3.15 | > 100 | > 100 | 3.11 |  | 3.42 | 3.07 | 3.19 | 3.66 | 3.41 |  |  |  |  |  |  |  |  |  | 
5 | Fc1cc(C2=Nn3c(nnc3-c3cc(F)c(Cl)cc3Cl)SC2)c(Cl)cc1Cl | 64 | > 100 | > 100 | > 100 | 74.2 | 61.3 | > 100 | 45.6 | 66.7 | 51.9 | 20.4 | 28.4 | 80.4 | 22 | 21.8 | 16.9 | 18.5 | 37.4 | 21.6 | 20.3
6 | CC1(C)CCCC2(C)[C@@H]1CC[C@]13C[C@](C)(CC[C@@H]21)[C@@H]3CO (stereo partly specified) | > 100 | > 100 | > 100 | > 100 | > 100 | > 100 | > 100 | > 100 | > 100 | > 100 |  |  |  |  |  |  |  |  |  | 
7 | O=c1n(Cc2ccccc2)c2ccccc2n1CC1CS1 (stereo unspecified) |  | > 100 | > 100 |  | > 100 | > 100 | > 100 | > 100 | > 100 | > 100 |  |  |  |  |  |  |  |  |  | 
8 | COc1cc(CN(C)N2C(=O)c3cccc4cc([N+](=O)[O-])cc(c34)C2=O)cc(OC)c1OC | > 100 | > 100 | > 100 | > 100 | > 100 |  |  |  | > 100 | > 100 |  |  |  |  |  |  |  |  |  | 
9 | CCOC(=O)c1csc(NC(=O)CCN2CCOCC2)n1 | > 100 | 94.4 | > 100 | > 100 | 81.1 |  | > 100 | > 100 | > 100 | > 100 |  |  |  |  |  |  |  |  |  | 
